Tested on: yeast genes (level of expressed mRNA)
Assay: DNA chip analysis of expressed mRNA of yeast genes after 2 h culture with a toxic chemical substance
Assay type: cell-based, Saccharomyces cerevisiae S288C
Method in brief: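 S. cerevisiae S288C grown at 25° C in YPD; toxicant added at log phase at growth-inhibitory, non-lethal levels for 2 h, untreated cells as control. Poly(A) mRNA reverse-transcribed with Cy3/Cy5-dUTP, hybridized to whole-genome chip at 65° C >12 h; value is fluorescence ratio versus untreated.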

HgCl2 [(3)]
The level of expressed mRNA in the presence of chemical substance/ (yeast gene YFL010C, ratio to control without chemical substance, 2 h culture): 1.3 | The level of expressed mRNA in the presence of chemical substance/ (yeast gene YFL024C, ratio to control without chemical substance, 2 h culture): 1.1 | The level of expressed mRNA in the presence of chemical substance/The level of expressed mRNA in the absence of chemical substance (yeast gene YFL028C): 0.7 | The level of expressed mRNA in the presence of chemical substance/ (yeast gene YFL032W, ratio to control without chemical substance, 2 h culture): 1.6 | The level of expressed mRNA in the presence of chemical substance/The level of expressed mRNA in the absence of chemical substance (yeast gene YFL043C): 0.6 | The level of expressed mRNA in the presence of chemical substance/in the absence of chemical substance (yeast gene YGL035C): 4.3 | The level of expressed mRNA in the presence of chemical substance/ (yeast gene YGL037C, ratio to control without chemical substance, 2 h culture): 6.5 | The level of expressed mRNA in the presence of chemical substance/ (yeast gene YGL047W, ratio to control without chemical substance, 2 h culture): 1.6 | The level of expressed mRNA in the presence of chemical substance/ (yeast gene YGL053W, ratio to control without chemical substance, 2 h culture): 1.2 | The level of expressed mRNA in the presence of chemical substance/ (yeast gene YGL121C, ratio to control without chemical substance, 2 h culture): 1.4 | The level of expressed mRNA in the presence of chemical substance/The level of expressed mRNA in the absence of chemical substance (yeast gene YGL158W): 1.9 | The level of expressed mRNA in the presence of chemical substance/ (yeast gene YGL199C, ratio to control without chemical substance, 2 h culture): 1.7 | The level of expressed mRNA in the presence of chemical substance/The level of expressed mRNA in the absence of chemical substance (yeast gene YGL229C): 0.9 | The level of expressed mRNA in the presence of chemical substance/ (yeast gene YGR101W, ratio to control without chemical substance, 2 h culture): 1.2 | The level of expressed mRNA in the presence of chemical substance/ (yeast gene YGR110W, ratio to control without chemical substance, 2 h culture): 2.2 | The level of expressed mRNA in the presence of chemical substance/ (yeast gene YGR130C, ratio to control without chemical substance, 2 h culture): 0.6 | The level of expressed mRNA in the presence of chemical substance/The level of expressed mRNA in the absence of chemical substance (yeast gene YGR136W): 1.3 | The level of expressed mRNA in the presence of chemical substance/ (yeast gene YGR154C, ratio to control without chemical substance, 2 h culture): 2.2 | The level of expressed mRNA in the presence of chemical substance/The level of expressed mRNA in the absence of chemical substance (yeast gene YGR189C): 1.5 | The level of expressed mRNA in the presence of chemical substance/The level of expressed mRNA in the absence of chemical substance (yeast gene YGR213C): 1.0 | The level of expressed mRNA in the presence of chemical substance/ (yeast gene YGR221C, ratio to control without chemical substance, 2 h culture): 0.9 | The level of expressed mRNA in the presence of chemical substance/The level of expressed mRNA in the absence of chemical substance (yeast gene YGR257C): 0.9 | The level of expressed mRNA in the presence of chemical substance/in the absence of chemical substance (yeast gene YGR287C): 1.3 | The level of expressed mRNA in the presence of chemical substance/The level of expressed mRNA in the absence of chemical substance (yeast gene YHR004C): 0.8 | The level of expressed mRNA in the presence of chemical substance/The level of expressed mRNA in the absence of chemical substance (yeast gene YHR071W): 0.6 | The level of expressed mRNA in the presence of chemical substance/ (yeast gene YHR138C, ratio to control without chemical substance, 2 h culture): 2.2 | The level of expressed mRNA in the presence of chemical substance/The level of expressed mRNA in the absence of chemical substance (yeast gene YHR139C): 6.8 | The level of expressed mRNA in the presence of chemical substance/The level of expressed mRNA in the absence of chemical substance (yeast gene YHR142W): 2.1 | The level of expressed mRNA in the presence of chemical substance/ (yeast gene YHR199C, ratio to control without chemical substance, 2 h culture): 3.2 | The level of expressed mRNA in the presence of chemical substance/ (yeast gene YIL023C, ratio to control without chemical): 2.1 | The level of expressed mRNA in the presence of chemical substance/ (yeast gene YIL041W, ratio to control without chemical substance, 2 h culture): 2.1 | The level of expressed mRNA in the presence of chemical substance/ (yeast gene YIL087C, ratio to control without chemical substance, 2 h culture): 3.4 | The level of expressed mRNA in the presence of chemical substance/The level of expressed mRNA in the absence of chemical substance (yeast gene YIL123W): 1.2 | The level of expressed mRNA in the presence of chemical substance/The level of expressed mRNA in the absence of chemical substance (yeast gene YIL140W): 1.5 | The level of expressed mRNA in the presence of chemical substance/ (yeast gene YJL057C, ratio to control without chemical substance, 2 h culture): 1.6 | The level of expressed mRNA in the presence of chemical substance/ (yeast gene YJL066C, ratio to control without chemical substance, 2 h culture): 1.2 | The level of expressed mRNA in the presence of chemical substance/in the absence of chemical substance (yeast gene YJL070C): 1.1 | The level of expressed mRNA in the presence of chemical substance/The level of expressed mRNA in the absence of chemical substance (yeast gene YJL073W): 2.5 | The level of expressed mRNA in the presence of chemical substance/ (yeast gene YJL082W, ratio to control without chemical substance, 2 h culture): 2.4 | The level of expressed mRNA in the presence of chemical substance/The level of expressed mRNA in the absence of chemical substance (yeast gene YJL089W): 1.0 | The level of expressed mRNA in the presence of chemical substance/The level of expressed mRNA in the absence of chemical substance (yeast gene YJL116C): 1.3 | The level of expressed mRNA in the presence of chemical substance/ (yeast gene YJL151C, ratio to control without chemical substance, 2 h culture): 3.2 | The level of expressed mRNA in the presence of chemical substance/ (yeast gene YJL152W, ratio to control without chemical substance, 2 h culture): 1.8 | The level of expressed mRNA in the presence of chemical substance/ (yeast gene YJL161W, ratio to control without chemical substance, 2 h culture): 1.5 | The level of expressed mRNA in the presence of chemical substance/in the absence of chemical substance (yeast gene YJL167W): 1.4 | The level of expressed mRNA in the presence of chemical substance/ (yeast gene YJL171C, ratio to control without chemical substance, 2 h culture): 2.8 | The level of expressed mRNA in the presence of chemical substance/in the absence of chemical substance (yeast gene YJL216C): 2.2 | The level of expressed mRNA in the presence of chemical substance/The level of expressed mRNA in the absence of chemical substance (yeast gene YJR004C): 3.4 | The level of expressed mRNA in the presence of chemical substance/ (yeast gene YJR008W, ratio to control without chemical substance, 2 h culture): 1.2 | The level of expressed mRNA in the presence of chemical substance/ (yeast gene YJR054W, ratio to control without chemical): 0.3 | The level of expressed mRNA in the presence of chemical substance/The level of expressed mRNA in the absence of chemical substance (yeast gene YJR086W): 0.8 | The level of expressed mRNA in the presence of chemical substance/The level of expressed mRNA in the absence of chemical substance (yeast gene YKL008C): 2.0 | The level of expressed mRNA in the presence of chemical substance/The level of expressed mRNA in the absence of chemical substance (yeast gene YKL013C): 1.4 | The level of expressed mRNA in the presence of chemical substance/The level of expressed mRNA in the absence of chemical substance (yeast gene YKL039W): 2.4 | The level of expressed mRNA in the presence of chemical substance/The level of expressed mRNA in the absence of chemical substance (yeast gene YKL041W): 1.1 | The level of expressed mRNA in the presence of chemical substance/ (yeast gene YKL071W, ratio to control without chemical substance, 2 h culture): 5.4
